# Where “and” joins values, the source holds several entries; their conditions need not be identical. Identical values can stand only once. Like-named read-outs stand apart in the source and are kept apart here.
# Experiments:
# TraR = biological target: T1, TraR (Agrobacterium tumefaciens, UniProt P33905); test: β-galactosidase reporter assay in yeast (TraA8 element, galactose-inducible TraR); format: cell-based; conditions: strain YPH499, c1.5 and 6, 3 copies of TraA8 element; 5 hrs growth on galactose; 50 μM C8-HSL
# T1 construct: expressed in transfected cells; host or cells: Saccharomyces cerevisiae (strain 204142; YPH499)
# VP16-TraR [1] = test: Transient GUS reporter assay in carrot protoplasts with VP16-TraR effector and tra box reporter; format: cell-based, Agrobacterium tumefaciens; conditions: Table 8: TraA8(4X) +TraR
# From the text: Carrot protoplasts were transfected with the TraA8 (4×)-GUS reporter construct with the 35S-VP16-TraR activator gene and tested for GUS induction by application of wild type AHL and the various AHL analogs described in Example 8.
# VP16-TraR [2] = tested on: VP16-TraR
# Protocol: Transgenic Arabidopsis plants containing TraA8(3×)-GUS reporter and 35S-VP16-TraR activator genes (pMON53077) were analyzed for induction of GUS activity. […] GUS assays were conducted as described by Jefferson et al. (supra).
# In addition, detached leaves incubated for 24 hours in MS medium with or without 100 μM HSL were visualized for induction of GUS activity after staining.
# VP16-TraR [3] = test: Transient GUS reporter assay in carrot protoplasts with VP16-TraR effector and tra box reporter; format: cell-based, Agrobacterium tumefaciens; set-up: 4, 5, 6 (replicate GUS activities, +inducer): unit not given here
# tra box-GUS reporter = conditions: for +inducer (average GUS activity): 25 [i M OOHL]
# Protocol: Plasmids for transfection were isolated and purified using Megaprep plasmid DNA isolation kit (Qiagen). Carrot protoplasts for transfections were prepared from carrot cell suspension culture and transfected with purified DNA as described (Ulmasov et al., Plant Cell 7:1611–1623, 1995). Briefly, 10 μg of the reporter plasmid and 5 μg of the effector plasmid were incubated with 10^6 protoplasts for five minutes at the room temperature in the presence of polyethylene glycol-calcium solution. After diluting approximately 10-fold with the culture medium, the protoplasts were incubated in the dark for 36 hours either in the presence or absence of the inducer 3-oxohexanoyl-homoserine lactone (OHHL, racemic mixture of the L- and D-isomers, purchased from Sigma Chemical Co., St Louis, Mo.). After incubation, protoplasts were collected by low-speed centrifugation, lysed and the level of GUS activity was measured using fluorometric GUS assay (Jefferson et al., EMBO J. 6:3901–3907, 1987).
# Ten μg of the reporter plasmid (pMON53031), and indicated amount of the 35S effector plasmid per reaction was used for transfection in triplicate. […] The “− inducer” and “+ inducer” columns are averages of the GUS activities.
# These constructs were tested for background GUS activity and TraR responsiveness in carrot protoplasts.
# [4] = Table 6 lane 20: TraA9(3X), cl.8 +HA-VP16-TraR, 12.5 μM C8-AHL
# T1 sequence (P33905 whole entry): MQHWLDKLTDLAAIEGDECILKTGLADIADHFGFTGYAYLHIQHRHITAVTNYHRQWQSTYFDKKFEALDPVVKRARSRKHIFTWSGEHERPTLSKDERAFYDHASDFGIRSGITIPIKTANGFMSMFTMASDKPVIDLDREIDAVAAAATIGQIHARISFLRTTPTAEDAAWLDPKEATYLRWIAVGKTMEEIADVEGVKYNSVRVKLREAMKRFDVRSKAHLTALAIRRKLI
smiles,measurement,setting,value
"CCCCCC(=O)CC(=O)N[C@H]1CCOC1=O [C8-HSL, 3-oxooctanoyl-L-homoserine lactone]",β-gal activity (chemiluminescent assay),TraR,strong induction
same,"1, 2, 3 (replicate GUS activities at the lower concentration)",VP16-TraR [1]; 5 μM,2820.7 and 3124.7 and 3110.7
same,"4, 5, 6 (replicate GUS activities at the higher concentration)",VP16-TraR [1]; 12.5 μM,4386.9 and 4031.2 and 4010.3
same,"1, 2, 3 (replicate GUS activities at the lower concentration)",VP16-TraR [1]; 25 μM,8183.1 and 7890.1 and 6855.5
same,"4, 5, 6 (replicate GUS activities at the higher concentration)",VP16-TraR [1]; 75 μM,8036.8 and 7647.1 and 8243.2
same,histochemical GUS staining,"VP16-TraR [2]; detached caulline leaves, 24 hours in MS medium, 100 μM HSL",uniform induced activity
same,+Inducer (GUS activity),VP16-TraR [2]; plant s3553-1,556.56
same,+Inducer (GUS activity),VP16-TraR [2]; plant s3553-2,554.08
same,+Inducer (GUS activity),VP16-TraR [2]; plant s3554-1,3101.09
same,+Inducer (GUS activity),VP16-TraR [2]; plant s3554-2,3098.61
same,+Inducer (GUS activity),VP16-TraR [2]; plant s3559-1,599.93
same,+Inducer (GUS activity),VP16-TraR [2]; plant s3559-2,597.45
same,+Inducer (GUS activity),VP16-TraR [2]; plant s3562-1,75.93
same,+Inducer (GUS activity),VP16-TraR [2]; plant s3562-2,73.45
same,+Inducer (GUS activity),VP16-TraR [2]; plant s3570-1,4831.21
same,+Inducer (GUS activity),VP16-TraR [2]; plant s3570-2,4828.73
same,+Inducer (GUS activity),VP16-TraR [2]; plant s3573-1,768.65
same,+Inducer (GUS activity),VP16-TraR [2]; plant s3573-2,766.17
same,+Inducer (GUS activity),VP16-TraR [2]; plant s3575-1,3453.00
same,+Inducer (GUS activity),VP16-TraR [2]; plant s3575-2,3450.52
same,+Inducer (GUS activity),VP16-TraR [2]; plant s3582-1,559.86
same,+Inducer (GUS activity),VP16-TraR [2]; plant s3582-2,557.38
same,+Inducer (GUS activity),VP16-TraR [2]; plant s3594-1,515.77
same,+Inducer (GUS activity),VP16-TraR [2]; plant s3594-2,513.29
same,+Inducer (GUS activity),VP16-TraR [2]; plant wild-type,2.48
same,"4, 5, 6 (replicate GUS activities, +inducer)","VP16-TraR [3]; Table 5 lane 2: tra box (6X), cl.7 +HA-VP16-TraR, 12.5 μM C8-AHL",933.8 and 1033.2 and 995.1
same,"4, 5, 6 (replicate GUS activities, +inducer)","VP16-TraR [3]; Table 5 lane 4: traA1(3X), cl.35 +HA-VP16-TraR, 12.5 μM C8-AHL",1896.4 and 1959.7 and 1968.4
same,"4, 5, 6 (replicate GUS activities, +inducer)","VP16-TraR [3]; Table 5 lane 6: traA2(3X), cl.43 +HA-VP16-TraR, 12.5 μM C8-AHL",2198.3 and 2341.9 and 2304.6
same,"4, 5, 6 (replicate GUS activities, +inducer)","VP16-TraR [3]; Table 5 lane 8: traA3(3X), cl.4 +HA-VP16-TraR, 12.5 μM C8-AHL",117.3 and 111.1
same,"4, 5, 6 (replicate GUS activities, +inducer)","VP16-TraR [3]; Table 5 lane 10: traA4(3X), cl.23 +HA-VP16-TraR, 12.5 μM C8-AHL",142.9 and 112.2 and 113.5
same,"4, 5, 6 (replicate GUS activities, +inducer)","VP16-TraR [3]; Table 5 lane 12: traA5(3X), cl.2 +HA-VP16-TraR, 12.5 μM C8-AHL",21.3 and 18.5 and 21.8
same,"4, 5, 6 (replicate GUS activities, +inducer)","VP16-TraR [3]; Table 5 lane 14: traA6(3X), cl.21 +HA-VP16-TraR, 12.5 μM C8-AHL",64.8 and 64.7
same,"4, 5, 6 (replicate GUS activities, +inducer)","VP16-TraR [3]; Table 5 lane 16: traA7(3X), cl.15 +HA-VP16-TraR, 12.5 μM C8-AHL",237.5 and 226.8 and 240.1
same,"4, 5, 6 (replicate GUS activities, +inducer)","VP16-TraR [3]; Table 5 lane 18: traA8(3X), cl.4 +HA-VP16-TraR, 12.5 μM C8-AHL",828.8 and 874.3 and 960.9
same,"4, 5, 6 (replicate GUS activities, +inducer)","VP16-TraR [3]; Table 5 lane 20: traA9(3X), cl.8 +HA-VP16-TraR, 12.5 μM C8-AHL",65.4 and 65.3 and 60.5
same,"4, 5, 6 (replicate GUS activities, +inducer)","VP16-TraR [3]; Table 6 lane 2: Tra box(3X), cl.5 +HA-VP16-TraR, 12.5 μM C8-AHL",1350.6 and 1542.2 and 1835.6
same,"4, 5, 6 (replicate GUS activities, +inducer)","VP16-TraR [3]; Table 6 lane 4: TraA1(3X), cl.35 +HA-VP16-TraR, 12.5 μM C8-AHL",1426.4 and 1490.9 and 1763.9
same,"4, 5, 6 (replicate GUS activities, +inducer)","VP16-TraR [3]; Table 6 lane 6: TraA2(3X), cl.43 +HA-VP16-TraR, 12.5 μM C8-AHL",1757.9 and 2255.2 and 2158.0
same,"4, 5, 6 (replicate GUS activities, +inducer)","VP16-TraR [3]; Table 6 lane 8: TraA3(3X), cl.4 +HA-VP16-TraR, 12.5 μM C8-AHL",106.3 and 96.1
same,"4, 5, 6 (replicate GUS activities, +inducer)","VP16-TraR [3]; Table 6 lane 10: TraA4(3X), cl.23 +HA-VP16-TraR, 12.5 μM C8-AHL",108.1 and 108.3 and 112.6
same,"4, 5, 6 (replicate GUS activities, +inducer)","VP16-TraR [3]; Table 6 lane 12: TraA5(3X), cl.2 +HA-VP16-TraR, 12.5 μM C8-AHL",91.6 and 72.7 and 82.6
same,"4, 5, 6 (replicate GUS activities, +inducer)","VP16-TraR [3]; Table 6 lane 14: TraA6(3X), cl.21 +HA-VP16-TraR, 12.5 μM C8-AHL",1.4 and 1.9 and 6.3
same,"4, 5, 6 (replicate GUS activities, +inducer)","VP16-TraR [3]; Table 6 lane 16: TraA7(3X), cl.15 +HA-VP16-TraR, 12.5 μM C8-AHL",216.9 and 217.5 and 275.9
same,"4, 5, 6 (replicate GUS activities, +inducer)","VP16-TraR [3]; Table 6 lane 18: TraA8(3X), cl.4 +HA-VP16-TraR, 12.5 μM C8-AHL",1774.0 and 1839.9 and 1663.3
same,"4, 5, 6 (replicate GUS activities, +inducer)",VP16-TraR [3]; [4],307.2 and 197.9 and 183.9
same,+inducer (average GUS activity),VP16-TraR [3]; [4],229.7
same,"4, 5, 6 (replicate GUS activities, +inducer)","VP16-TraR [3]; Table 6 lane 22: TraA10(3X), cl.17 +HA-VP16-TraR, 12.5 μM C8-AHL",621.1 and 629.5 and 672.7
same,"4, 5, 6 (replicate GUS activities, +inducer)","VP16-TraR [3]; Table 6 lane 24: TraA-1(3X), cl.14 +HA-VP16-TraR, 12.5 μM C8-AHL",25.0 and 30.0
same,"4, 5, 6 (replicate GUS activities, +inducer)","VP16-TraR [3]; Table 7 lane 3: TraA8(4X), cl.16 +HA-VP16-TraR, 12.5 μM C8-AHL",1190.9 and 991.1 and 863.8
same,"4, 5, 6 (replicate GUS activities, +inducer)","VP16-TraR [3]; Table 7 lane 5: TraA8(3X), cl.4(60 μg) +TraR, 12.5 μM C8-AHL",1867.2 and 1559.0 and 1569.7
same,"4, 5, 6 (replicate GUS activities, +inducer)","VP16-TraR [3]; Table 7 lane 8: TraA8(3X), cl.4(25 μg) + TraR + TraM, 12.5 μM C8-AHL",13.5 and 9.6 and 12.1
same,"4, 5, 6 (replicate GUS activities, +inducer)","VP16-TraR [3]; Table 7 lane 9: TraA8(3X), cl.4 (25 μg) + TraR + TraS, 12.5 μM C8-AHL",279.4 and 224.4 and 241.0
same,"4, 5, 6 (replicate GUS activities, +inducer)","VP16-TraR [3]; Table 7 lane 10: TraA8(3X), cl.4 (25 μg) + TraR + CAT, 12.5 μM C8-AHL",698.2 and 680.1 and 908.4
same,"4, 5, 6 (replicate GUS activities, +inducer)","VP16-TraR [3]; Table 8 lane 3: TraA8(4X) +TraR, 25 μM (row 0/25 μM)",7034.5 and 8005.8 and 7531.5
same,+inducer (average GUS activity),tra box-GUS reporter; Table 4: min35S-GUS,6.1
same,+inducer (average GUS activity),tra box-GUS reporter; Table 4: pMON53031 alone,265
same,"4, 5, 6 (replicate GUS activities, +inducer)","tra box-GUS reporter; Table 5 lane 1: tra box (6X), cl.7 alone (35S-CAT), 12.5 μM C8-AHL",569.8 and 647.3 and 643.6

# Source: patent publication US7202085B2, “Control of gene expression in eukaryotic cells” (Calgene LLC, priority 1999, dated 2007)
